Tests used:
[1] = system: bacteria; settings: cited from earlier work
[2] = system: established biofilm in a previously used dental unit
Text: The experiment consisted of first re-invigorating an established biofilm in a previously used dental unit (A-Dec, a 1980 model) by running tap water, which had been determined to have a bacterial count of 10^4 cfu/mL, through the apparatus at hourly intervals between 9:00 a.m. and 4:00 p.m. for a total of 10 days. […] This limited the organisms monitored to those originating from the biofilm.
Only one bottle was used at a time, either one containing deionized water (filtered through a 0.2 micron filter), or one containing a 1% H2O2 solution (Kroger brand 3%, diluted with deionized water to a 1% solution). Every morning at 9:00 a.m., the H2O2 bottle was connected to the compressed air cylinder and the junction box (which connects the reservoir to the dental cart). The second air cylinder was directly connected to the junction box which provided air to the dental cart tools and allowed the peroxide or water solution to be misted out of the high-speed handpiece to simulate dental office use. Both air cylinders were opened, and H2O2 was run through the unit by pressurizing the bottle. A 50 mL bolus of the H2O2 solution was run through as the line to the dental cart/handpiece holds approximately 40 mL. The H2O2 bottle was then removed, and the bottle containing only water was connected into the set-up in exactly the same way. Approximately 150 mL of water were run through the unit to ensure that all of the H2O2 was rinsed out of the line. For the remainder of the day, to simulate normal operation in a dentist's office where the water is left stagnant 99% of the time, the line was flushed with 150 mL of water every hour. At 4:00 p.m., a 2 mL sample of water was collected from the high-speed handpiece into a 15 mL sterile centrifuge tube (Fisher brand). […] The plates were counted using a MANOSTAT brand colony counter after 2-3 days incubation time at 37° C., selected as the optimal growth temperature for human pathogens.
After the H2O2 treatment, 150 mL of sterile, deionized water was run through the unit at hourly intervals between the hours of 9:00 a.m. and 4:00 p.m. to simulate normal dental office operating conditions, where water is left stagnant most of the time. On day 35, the unit was treated for 4 days with 2% H2O2 in the same manner previously described. This was done to assess the effect of higher concentrations of peroxide on the biofilm.
On day 40, the peroxide treatment procedure was changed slightly. Instead of applying the 2% H2O2 solution in the morning it remained in the dental lines overnight. From 9.00 a.m. to 4 p.m. daily the unit was flushed with 150 mL of sterile water. […] At 9.00 a.m., the following morning, the sterile water flushes began again.
At the end of the day after the last flushing, a 2 mL sample of water was collected from the hand piece. […]

SMILES: OO [hydrogen peroxide]
- Effect against a broad range of pathogens ([1]; 3%, Juven and Pierson): quite effective
- Minimum level for use in an acidic sanitizing solution (lowest concentration described as effective as a germicide) ([1]; 21 CFR Part 178.1010 (c) (39), food utensils and food handling surfaces): ≥ 72 ppm
- Concentration for bacteriostatic activity ([1]; Juven and Pierson): 0.0005%
- Onset of bactericidal activity ([1]; Juven and Pierson): 0.0034%
- Concentration required for broad bactericidal action over a short time span (minutes) ([1]; Thomas et. al.): at least 0.1%
- Concentrations suppressing bacterial growth (bacteriostatic action) ([1]; Thomas et. al.): ≥ 0.0007%
- Concentrations of biostatic control [1]: < 0.1%
- Concentrations of efficient biocidal control [1]: 1%
- Concentrations at which it is a potent bacteriostat ([1]; known): less than 100 ppm
- Level demonstrated to be effective against existing biofilms [2]: 2%
- Microbial load of water from the high-speed handpiece ([2]; 1% H2O2 applied in the morning, sample in the afternoon after hourly flushings, initial applications (Region II)): < 200 cfu/mL
- Bacterial count of water from the handpiece ([2]; 2% H2O2 left in the lines overnight, from day 40 onwards, initial results): < 200 cfu/mL
- Bacterial cell counts ([2]; 2% solution, applied in the morning, from day 35 for 4 days (Region IV)): lower bacterial cell counts than a 1% solution

— patent US6555055B1, “System for preventing and remediating biofilms in dental equipment” (Lynntech, Inc., priority 1998, dated 2003)
